Key:
[1] = tested on: Staphylococcus aureus ATCC 9144; assay: Bacterial minimum inhibitory concentration (broth microdilution); format: cell-based; settings: ATCC9144; Staphylococcus aureus ATCC 9144, 48 h, 35 °C, di-TFA salts
Experimental: (§1) Method for determination of bacterial minimum inhibitory concentration (MIC) Stock solutions of the water-soluble compounds were prepared by dissolving them in ultrapure water (Milli-Q H2O, Millipore, MA, USA). The less water-soluble compounds were first dissolved in 25 - 50 µL 100% DMSO before further dilution with ultrapure water. The DMSO concentration was always less than 1% in the working concentration of each compound. A modified broth microdilution susceptibility test based on the CLSI M07-A9 protocol, [2] was used to determine minimal inhibitory concentrations (MIC). Briefly, the test compounds were two-fold diluted with ultrapure water in polystyrene 96-well flat-bottom microplates (NUNC, Roskilde, Denmark). The bacterial inoculum was diluted to 2.5 - 3 x 10^4 cells/mL in Mueller-Hinton broth (MHB, Difco Laboratories, USA) and added to the different diluted compounds in a ratio of 1:1. Positive control (ciprofloxacin, Sigma-Aldrich, USA), negative control (bacteria + water), and media control (media + water) were included in each experiment. The microplates were incubated for 48 h at 35 °C in an EnVision microplate reader (PerkinElmer, Waltham, MA, USA). The lowest concentration of compounds that caused no bacterial growth, as determined by optical density (OD600) measurements, was defined as the MIC value. All compounds were tested in 3 technical replicates.
(§2) Supplementary Video S1. HSC-3 cells were seeded at 100% confluence and a standard scratch wound migration assay was performed. The cells were imaged every 2 hours for 24 hours. The video

[2] = tested on: Escherichia coli ATCC 25922; assay: as above; format: cell-based; settings: ATCC25922; Escherichia coli ATCC 25922, 48 h, 35 °C, di-TFA salts
Experimental: as §1, §2

[3] = tested on: Pseudomonas aeruginosa ATCC 27853; assay: as above; format: cell-based; settings: ATCC27853; Pseudomonas aeruginosa ATCC 27853, 48 h, 35 °C, di-TFA salts
Experimental: as §1, §2

Bacillus subtilis 168 = assay: as above; format: cell-based; settings: Bacillus subtilis 168, 48 h, 35 °C, di-TFA salts
Experimental: as §1, §2

HSC-3 cells [4] = assay: Scratch wound invasion assay (myogel-collagen); format: cell-based, human; settings: HSC-3, 10 µM, 24 h; control cells approximately 24 h
Experimental: (§3) Two Incucyte image lock 96-well plates (#4379, Sartorius) were coated with 50 µl myogel (0.5 mg/ml) per well. The next day, the media remaining in the wells was removed before HSC-3 cells were seeded at a density of 25,000 cells/well in 100 µl. The cells were left to adhere, and the following day, a scratch was made in the middle of each well using the Incucyte 96-pin WoundMaker tool (Sartorius). The wells were then washed once with media. For the migration assay, the media in each well was then replaced with 100 µl of media containing 0.1, 1 or 10 µM of MPM-2:0 or MPM-4:2. For the invasion assay, the media was replaced by 50 µl of a gel consisting of serum-free media, myogel (2.4 mg/ml), type I rat tail collagen (0.8 mg/ml, Corning, NY, USA) and 0.1, 1 or 10 µM of MPM-2:0 or MPM-4:2. The plate was incubated at 37°C for 1 h to let the gel solidify. Next, 100 µl of media, also containing 0.1, 1 or 10 µM of MPM-2:0 or MPM-4:2 was added on top of the gel. Both the migration and invasion plates were placed in the Incucyte S3 (Sartorius) and imaged at ×10 magnification every 2 hours for 24 h in total. The Incucyte software was used to analyze the relative wound density.

HSC-3 cells [5] = assay: Scratch wound migration assay; format: cell-based, human; settings: for wound closure in migration assay (in words): HSC-3, 10 µM, 24 h; for wound closing at the lower concentrations (in words): HSC-3, 0.1 or 1 µM, text does not separate migration and invasion
Experimental: as §3

HSC-3 cells [6] = assay: MTS viability assay with bafilomycin A1 and z-VAD-FMK; format: cell-based, human; settings: HSC-3, 24 h; cisplatin 50 µM, MPM-2:0/MPM-6:0 5 µM, MPM-3:2/MPM-4:2 10 µM
Experimental: HSC-3 and UT-SCC-24A cells were seeded, 10,000 cells/well, in flat bottom 96-well plates and left to adhere overnight. The supernatants were then removed and replaced by 50 µl of complete DMEM/F-12 ± 100 nM BafA1 (#196000, Sigma-Aldrich, St. Louis, MO, United States) or 50 µM z-VAD-FMK (#219007, Sigma-Aldrich). The plate was then incubated for 1 hour before another 50 µl of complete DMEM/F-12 ± 100 nM BafA1 or 50 µM z-VAD-FMK as well as the MPMs or cisplatin was added. The final concentration of cisplatin was 50 µM and for the MPMs it was 5 or 10 µM for MPM-2:0 and MPM-6:0, and 10 or 20 µM for MPM-3:2 and MPM-4:2, for HSC-3 and UT-SCC-24A cells, respectively. 100 μl of media ± 1% Triton X-100 served as […]. The cells were incubated for 24 h before 20 µl of MTS reagent (CellTiter 96® Aqueous One Solution, Promega, Madison, WI, United States) was added to each well. The plate was then incubated for one more hour before absorbance was measured at 490 nm on a VersaMaxTM Microplate reader (Molecular Devices, San Jose, CA, United States). Viability was calculated using the following formula: %=Abs treated sample−Abs positive control/Abs negative control−Abs positive control x 100
At least three independent experiments were performed, with triplicate wells in each experiment.

SMILES	MIC [1]	MIC [2]	MIC [3]	MIC (Bacillus subtilis 168)	wound closure in invasion assay (in words) (HSC-3 cells [4])	wound closure in migration assay (in words) (HSC-3 cells [5])	wound closing at the lower concentrations (in words) (HSC-3 cells [5])	viability in the presence of BafA1 (100 nM) or z-VAD-FMK (50 µM) (in words) (HSC-3 cells [6])
NCCN1C(=O)N(CCN)C(=O)C(CCCc2ccccc2)(CCCc2ccccc2)C1=O [MPM-2:0]	8 µg/mL	16 µg/mL	16 µg/mL	8 µg/mL	induced cell death so quickly that it was not possible to study the effect on migration or invasion	induced cell death so quickly that it was not possible to study the effect on migration or invasion	trend towards faster wound closing	–
CN(C)CCCN1C(=O)N(CCCN(C)C)C(=O)C(CCCc2ccccc2)(CCCc2ccccc2)C1=O [MPM-3:2]	> 64 µg/mL	32 µg/mL	> 64 µg/mL	16 µg/mL	–	–	–	–
NCCCCCCN1C(=O)N(CCCCCCN)C(=O)C(CCCc2ccccc2)(CCCc2ccccc2)C1=O [MPM-6:0]	4 µg/mL	8 µg/mL	8 µg/mL	2 µg/mL	–	–	–	z-VAD-FMK increase viability more than BafA1
N.N.[Cl][Pt][Cl] [Cisplatin, cisplatin, reference compound]	–	–	–	–	–	–	–	z-VAD-FMK seemed to have some protective effects against cisplatin for both cell lines, while BafA1 had the opposite effect
CN(C)CCCCN1C(=O)N(CCCCN(C)C)C(=O)C(CCCc2ccccc2)(CCCc2ccccc2)C1=O [MPM-4:2]	64 µg/mL	32 µg/mL	> 64 µg/mL	16 µg/mL	never managed to close the wound	required more time to close the wound	trend towards faster wound closing	–
